These results are taken from patent US6716842B2, “Antidiabetic agents” (Warner-Lambert Company, LLC, priority 2002, dated 2004).

The experiment relates to PPAR-γ (promoter/enhancer of the murine aP2 gene in 3T3-L1 cells). The experiment in a line: 3T3-L1 transient reporter assay (AD3T3L1). Type of experiment: cell-based. The settings on record: for % Max BRL: maximal effect relative to reference BRL 49653. The protocol: TEST E—3T3-L1 TRANSIENT REPORTER ASSAY
This assay is used to determine the potential of putative PPAR-γ ligands to activate the promoter/enhancer of the murine aP2 gene. 3T3-L1 preadipocytes are cultured on collagen coated plates in DMEM containing 10% Calf serum for 48 hours post-confluence. The cells are then cultured for approximately 3 days in DMEM containing 10% Fetal Bovine Serum (FBS), 0.5-mM methyl isobutylxanthine, 0.25 μM dexamethasone, and 1 μg/ml of insulin. Cells are detached from the plates with Trypsin-EDTA and resuspended in Phosphate Buffered Saline (PBS).
The reporter construct used in this assay is comprised of the −5.4 Kb 5′ flanking region of the murine aP2 gene inserted into the cloning site of the TKpGL3 luciferase vector. Transfection efficiency is controlled by co-transfection of the reference plasmid CMV-β-galactosidase. The reporter construct and the reference plasmid are transiently co-transfected into the cells by electroporation. The transfected cells are plated into collagen coated 96-well plates and cultured overnight. Cells are then incubated for 48 hours with the test compounds and then harvested. The lysates are measured for luciferase and β-galactosidase activities using the Dual-Light® luciferase kit from Tropix on a EG&G Berthold MicroLumat LB96P luminometer.

Like-named read-outs stand apart in the source and are kept apart here.

Regarding `Cc1oc(-c2ccccc2)nc1CCOc1ccc(CCC(=O)O)c(O)c1` [3-[4-[2-(5-Methyl-2-phenyl-oxazol-4-yl)-ethoxy]-2-(hydroxy)-phenyl]-propionic acid], the “% Max BRL” value came out at 70%. In addition, for the setting “Mus musculus”, the EC50 was 3.4 µM.
For the molecule `Cc1oc(-c2ccccc2)nc1CCOc1ccc(CCC(=O)O)c(OCc2ccccn2)c1` [3-[4-[2-(5-Methyl-2-phenyl-oxazol-4-yl)-ethoxy]-2-(pyridin-2-ylmethoxy)-phenyl]-propionic acid], the “% Max BRL” value came out at 108%. Besides, the half-maximal effective concentration (EC50) (Mus musculus) was found to be 0.103 µM.
In the case of “3-{2-Hydroxy-4-[2-(5-methyl-2-phenyl-oxazol-4-yl)-ethoxy]-phenyl}-propionic acid ethyl ester”, the EC50 worked out at 5.9 µM and the “% Max BRL” value came out at 74%.
